In the first experiment the target is T1, human PAH with the R408W mutation (Homo sapiens, UniProt P00439, R408W).
T1 construct: expressed in transfected cells
T1 sequence (P00439 1-452 R408W): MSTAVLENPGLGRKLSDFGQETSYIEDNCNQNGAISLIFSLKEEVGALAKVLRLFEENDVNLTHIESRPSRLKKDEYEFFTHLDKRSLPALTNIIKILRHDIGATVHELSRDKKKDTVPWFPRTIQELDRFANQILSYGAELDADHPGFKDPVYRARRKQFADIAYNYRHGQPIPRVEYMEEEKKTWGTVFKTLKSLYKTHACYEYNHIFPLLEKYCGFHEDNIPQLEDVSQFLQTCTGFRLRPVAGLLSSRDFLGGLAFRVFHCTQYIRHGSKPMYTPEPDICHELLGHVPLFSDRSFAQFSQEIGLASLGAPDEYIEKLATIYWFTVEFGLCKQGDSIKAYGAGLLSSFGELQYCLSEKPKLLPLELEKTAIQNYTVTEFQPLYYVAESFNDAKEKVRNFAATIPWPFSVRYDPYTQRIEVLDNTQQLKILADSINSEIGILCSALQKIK
Briefly: Cell Based Phenylalanine Flux Assay. Set-up: scale not given here. To be noted: A375 cells expressing human R408W PAH; 24 hrs compound incubation; 13C-Tyrosine by LC-MS; average where tested multiple times; read-out: AC50.
As for `C[C@H]1CN(C(=O)c2nnc(-c3ccccn3)o2)[C@@H](c2nc3ccccc3s2)c2nc[nH]c21` [Example 1590, ((4R,7S)-4-(benzo[d]thiazol-2-yl)-7-methyl-6,7-dihydro-1H-imidazo[4,5-c]pyridin-5(4H)-yl)(5-(pyridin-2-yl)-1,3,4-oxadiazol-2-yl)methanone], the half-maximal activity concentration (AC50) (usually the midpoint of the concentration-response curve, whichever way the signal moves) lay in the range of 1000 to 5000 nM.

For the molecule `Fc1ccc(-c2nnc(N3CCc4[nH]cnc4[C@@H]3c3nc4ccccc4s3)o2)cc1` [Example 1492, (R)-2-(4-(benzo[d]thiazol-2-yl)-6,7-dihydro-1H-imidazo[4,5-c]pyridin-5(4H)-yl)-5-(4-fluorophenyl)-1,3,4-oxadiazole], the AC50 was 500 to 1000 nM.

Consider `Cn1nc(C2CCC2)cc1C(=O)N1CCc2[nH]cnc2[C@@H]1c1nc2c(F)cccc2s1` [Example 1854, (R)-(3-cyclobutyl-1-methyl-1H-pyrazol-5-yl)(4-(4-fluorobenzo[d]thiazol-2-yl)-6,7-dihydro-1H-imidazo[4,5-c]pyridin-5(4H)-yl)methanone], for which the AC50 was 1000 to 5000 nM.

As for `Cn1nc(C(F)F)cc1C(=O)N1CCc2[nH]cnc2[C@H]1c1nc2ccccc2s1` [Example 1803], the AC50 is < 500 nM.

For the molecule `CC(F)c1nc(C(F)F)c(C(=O)N2CCc3[nH]cnc3[C@@H]2c2nc3c(F)cccc3s2)o1` (stereo partly drawn) [Example 2076, (4-(difluoromethyl)-2-(1-fluoroethyl)oxazol-5-yl)((R)-4-(4-fluorobenzo[d]thiazol-2-yl)-6,7-dihydro-1H-imidazo[4,5-c]pyridin-5(4H)-yl)methanone], the AC50 lay in the range of 500 to 1000 nM.

For `CC(O)c1nc(Br)c(C(=O)N2CCc3[nH]cnc3[C@H]2c2nc3c(F)cccc3s2)o1` (single isomer, unassigned) [Example 2058], the AC50 is < 500 nM.

In the case of `O=C(c1oc(CCC2CC2)nc1C(F)(F)F)N1CCc2[nH]cnc2[C@@H]1c1nc2ccccc2s1` [Example 1580, (R)-(4-(benzo[d]thiazol-2-yl)-6,7-dihydro-1H-imidazo[4,5-c]pyridin-5(4H)-yl)(2-(2-cyclopropylethyl)-4-(trifluoromethyl)oxazol-5-yl)methanone], the half-maximal activity concentration (AC50) is < 500 nM.

For `O=C(c1nccs1)N1CCc2[nH]cnc2[C@@H]1c1nc2cccc(Cl)c2[nH]1` [Example 983, (R)-(4-(7-chloro-1H-benzo[d]imidazol-2-yl)-6,7-dihydro-1H-imidazo[4,5-c]pyridin-5(4H)-yl)(thiazol-2-yl)methanone], the AC50 is > 5000 nM.

As to `O=C(c1oc(N2CCOCC2)nc1C(F)(F)F)N1CCCc2[nH]cnc2[C@@H]1c1nc2ccccc2s1` [Example 2134, (R)-(4-(benzo[d]thiazol-2-yl)-7,8-dihydroimidazo[4,5-c]azepin-5(1H,4H,6H)-yl)(2-morpholino-4-(trifluoromethyl)oxazol-5-yl)methanone], the AC50 lay in the range of 1000 to 5000 nM.

In the case of `c1ccc2sc([C@@H]3c4nc[nH]c4CCN3CCC3CC3)nc2c1` [Example 1276, (S)-2-(5-(2-cyclopropylethyl)-4,5,6,7-tetrahydro-1H-imidazo[4,5-c]pyridin-4-yl)benzo[d]thiazole], the AC50 was < 500 nM.

Turning to `O=C(CCc1nc(Cl)cs1)N1CCc2[nH]cnc2[C@H]1c1nc2ccccc2s1` [Example 1023], the AC50 was in the range of 500 to 1000 nM.

`O=C(c1nnc(-c2cc[nH]n2)o1)N1CCc2[nH]cnc2[C@H]1c1nc2c(F)cccc2s1` [Example 1886]: the AC50 was 500 to 1000 nM.

Consider `CN(C)CCc1ccc2c(C(=O)N3CCc4[nH]cnc4[C@H]3c3nc4ccccc4s3)cnn2c1` [Example 1453], for which the AC50 was < 500 nM.

Regarding `O=C(c1cncs1)N1CCc2[nH]cnc2[C@@H]1c1ncc(-c2ccccc2)s1` [Example 2146, (R)-(4-(5-phenylthiazol-2-yl)-6,7-dihydro-1H-imidazo[4,5-c]pyridin-5(4H)-yl)(thiazol-5-yl)methanone], the AC50 was > 5000 nM.

In the case of `O=C(c1cnn2ccccc12)N1CCc2[nH]cnc2[C@@H]1c1nc2cccc(Br)c2s1` [Example 1336, (R)-(4-(7-bromobenzo[d]thiazol-2-yl)-6,7-dihydro-1H-imidazo[4,5-c]pyridin-5(4H)-yl)(pyrazolo[1,5-a]pyridin-3-yl)methanone], the AC50 is 1000 to 5000 nM.

For the molecule `O=C(c1nc2ccccc2[nH]1)N1CCc2[nH]cnc2[C@@H]1c1nc2ccccc2s1` [Example 1132, (R)-(1H-benzo[d]imidazol-2-yl)(4-(benzo[d]thiazol-2-yl)-6,7-dihydro-1H-imidazo[4,5-c]pyridin-5(4H)-yl)methanone], the AC50 was in the range of 1000 to 5000 nM.

In the case of `Cc1cc(F)ccc1-c1nnc(C(=O)N2CCc3[nH]cnc3[C@@H]2c2nc3ccccc3s2)o1` [Example 1784, (R)-(4-(benzo[d]thiazol-2-yl)-6,7-dihydro-1H-imidazo[4,5-c]pyridin-5(4H)-yl)(5-(4-fluoro-2-methylphenyl)-1,3,4-oxadiazol-2-yl)methanone], the AC50 is > 5000 nM.

With `Cc1c(-c2ncc(C(=O)N3CCc4[nH]cnc4[C@H]3c3nc4ccccc4s3)o2)cnn1C` [Example 1383], the AC50 is < 500 nM.

Turning to `O=C(c1cnn2ccc(Br)cc12)N1CCc2[nH]cnc2[C@H]1c1nc2ccccc2s1` [Example 1047], the concentration at half-maximal activity (AC50) was < 500 nM.

As to `O=C(c1ocnc1C(F)(F)F)N1CCc2[nH]cnc2[C@H]1c1nc2ccccc2[nH]1` [Example 994, (S)-(4-(1H-benzo[d]imidazol-2-yl)-6,7-dihydro-1H-imidazo[4,5-c]pyridin-5(4H)-yl)(4-(trifluoromethyl)oxazol-5-yl)methanone], the concentration at half-maximal activity (AC50) is < 500 nM.

As for `CC1(C)CC=C(c2ncc(C(=O)N3CCc4[nH]cnc4[C@@H]3c3nc4ccccc4s3)s2)CC1` [Example 1352, (R)-(4-(benzo[d]thiazol-2-yl)-6,7-dihydro-1H-imidazo[4,5-c]pyridin-5(4H)-yl)(2-(4,4-dimethylcyclohex-1-en-1-yl)thiazol-5-yl)methanone], the AC50 was 1000 to 5000 nM.

Turning to `O=C(c1cnn2ccc(Br)cc12)N1CCc2[nH]cnc2[C@@H]1c1nc2ccccc2s1` [Example 1048, (R)-(4-(benzo[d]thiazol-2-yl)-6,7-dihydro-1H-imidazo[4,5-c]pyridin-5(4H)-yl)(5-bromopyrazolo[1,5-a]pyridin-3-yl)methanone], the AC50 lay within 1000 to 5000 nM.

In the case of `O=C(CCc1ccc(F)cc1)N1CCc2[nH]cnc2[C@@H]1c1nc2ccccc2s1` [Example 1006, (R)-1-(4-(benzo[d]thiazol-2-yl)-6,7-dihydro-1H-imidazo[4,5-c]pyridin-5(4H)-yl)-3-(4-fluorophenyl)propan-1-one], the concentration at half-maximal activity (AC50) was > 5000 nM.

Regarding `O=C(c1nncn1C1CC1)N1CCc2[nH]cnc2[C@H]1c1nc2c(F)cccc2s1` [Example 2084], the AC50 is 500 to 1000 nM.

The same experiment, now with this note: A375 cells expressing human R408W PAH; 24 hrs with compound; 13C-Tyrosine by LC-MS; average where tested multiple times.
For `O=C(c1nnc(CCCNC2CC2)o1)N1CCc2[nH]cnc2C1c1nc2ccccc2s1` (stereo not drawn), the concentration at half-maximal activity (AC50) entry is listed as “E, E”.

The experiment is the same for the next values; noted with them: A375 cells expressing human R408W PAH; 24 hrs with compound; 13C-Tyrosine by LC-MS; average where tested multiple times; read-out: AC50.
For `O=C(c1cscn1)N1CCc2[nH]cnc2[C@H]1c1nc2ccccc2[nH]1` [(S)-(4-(1H-benzo[d]imidazol-2-yl)-1,4,6,7-tetrahydro-5H-imidazo[4,5-c]pyridin-5-yl)(thiazol-4-yl)methanone], the AC50 is 1000 to 5000 nM.

Regarding `NC(=O)c1ncoc1C(=O)N1CCc2[nH]cnc2C1c1nc2ccccc2s1` (stereo not drawn), the AC50 lay within 1000 to 5000 nM.

With `O=C(Cc1nc(C(F)(F)F)cs1)N1CCc2[nH]cnc2C1c1nc2ccc(F)cc2[nH]1` (stereo not drawn), the concentration at half-maximal activity (AC50) lay in the range of 1000 to 5000 nM.

On to `O=C(c1nc(Cl)cs1)N1CCc2[nH]cnc2C1c1nc2c(F)cccc2s1` (stereo not drawn), for which the AC50 is > 5000 nM.

Turning to `O=C(c1cnn2cccc(F)c12)N1CCc2[nH]cnc2[C@H]1c1nc2cc(F)ccc2s1` (single isomer, unassigned), the AC50 was in the range of 1000 to 5000 nM.

On to `O=C(c1n[nH]c2ccccc12)N1CCc2[nH]cnc2C1c1nc2cc(F)ccc2s1` (stereo not drawn), for which the AC50 is > 5000 nM.

Take `O=C(c1nc2ccccc2s1)N1CCc2[nH]cnc2C1c1nc2cccc(F)c2s1` (stereo not drawn): the AC50 is > 5000 nM.

For the molecule `O=C(c1cc[nH]n1)N1CCc2[nH]cnc2C1c1nc2ccccc2[nH]1` (stereo not drawn), the half-maximal activity concentration (AC50) was 1000 to 5000 nM.

As for `Cn1ncc(C(=O)N2CCc3[nH]cnc3C2c2nc3c(F)cccc3s2)c1Br` (stereo not drawn), the AC50 lay within 1000 to 5000 nM.

As for `O=C(c1nnc(-c2ccccn2)o1)N1CCCc2[nH]cnc2C1c1nc2ccccc2s1` (stereo not drawn), the half-maximal activity concentration (AC50) was > 5000 nM.

As to `O=C(c1cnn(CC(F)(F)F)c1)N1CCc2[nH]cnc2C1c1nc2ccccc2s1` (stereo not drawn), the AC50 was > 5000 nM.

As to `O=C(Cc1coc(C(F)F)n1)N1CCc2[nH]cnc2[C@H]1c1nc2ccccc2[nH]1` [(S)-1-(4-(1H-benzo[d]imidazol-2-yl)-6,7-dihydro-1H-imidazo[4,5-c]pyridin-5(4H)-yl)-2-(2-(difluoromethyl)oxazol-4-yl)ethanone], the half-maximal activity concentration (AC50) is 1000 to 5000 nM.

As for `O=C(Cc1cnco1)N1CCc2[nH]cnc2[C@H]1c1nc2ccccc2[nH]1` [(S)-1-(4-(1H-benzo[d]imidazol-2-yl)-6,7-dihydro-1H-imidazo[4,5-c]pyridin-5(4H)-yl)-2-(oxazol-5-yl)ethanone], the half-maximal activity concentration (AC50) is > 5000 nM.

As to `O=C(c1cnn2cc(Br)ccc12)N1CCc2[nH]cnc2C1c1nc2cc(F)ccc2s1` (stereo not drawn), the concentration at half-maximal activity (AC50) is 1000 to 5000 nM.

Take `CS(=O)(=O)c1ncoc1C(=O)N1CCc2[nH]cnc2C1c1nc2ccccc2s1` (stereo not drawn): the half-maximal activity concentration (AC50) is > 5000 nM.

Consider `Cn1ncc(C(=O)N2CCc3[nH]cnc3[C@@H]2c2nc3c(F)cccc3s2)c1Br` (single isomer, unassigned), for which the concentration at half-maximal activity (AC50) was > 5000 nM.

Consider `O=C(c1cnn2ccccc12)N1CCc2[nH]cnc2C1c1nc2ccc(Br)cc2s1` (stereo not drawn), for which the AC50 lay within 1000 to 5000 nM.

For the origin of these results see patent US20250171438A1 (Agios Pharmaceuticals, Inc., priority 2022, published 2025).
